In patent US6841563B1, “Aryloxy propanolamines for improving livestock production” (Eli Lilly and Company, priority 1999, dated 2005):
Marks after values point to notes of the source that are not given here.

Experiment: Weight gain, feed efficiency, breast and leg quarter weights, last 28 days of growing period in broiler chickens
Assay type: in vivo
Details: for Bone-in, Skin-on Breast Weight / Bone-in, Skin-on leg Quarter Weight / Dressing Percentage / Fat Pad Weight / Final Weight Day 49 / Hot Carcass Weight / Interim Weight Day 35 / Pen Feed Intake / Total Weight Gain (d 21-49) / Viscera Weight / Weight Gain Period 1 (d 21-35) / Weight Gain Period 2 (d 35-49) / Feed Efficiency F/G: day 21-49; for Feed Efficiency F/G: pen feed intake/total pen weight; for improvement of feed efficiency (feed/gain) compared with control: 28-day treatment period
Excerpt: Approximately 2500 Peterson-Hubbard, day-old, male chicks were used in a randomized, complete-block design with 3 treatments (Control and Compound 6 at 3 and 15 PPM (mg/kg feed)). The testing facility contained two wings, each containing 30 pens. The pens in each wing were divided into 6 blocks of 5 pens. Treatments were randomly allotted within each block. Each treatment consisted of 12 pens with 10 birds per pen.
Day-of-age birds were obtained from Pine Manor Hatchery in Goshen, Ind. Approximately 40 birds per pen were set at random upon receipt. On day 16 of the growout period, all birds were weighed and the 15 birds closest to the block mean were selected. These birds were allowed to acclimate until day 21 of age. On this day, all remaining birds were weighed again, and the 10 birds/pen closest to the block mean were chosen for the treatment phase. Birds were provided ad libitum access to feed and water throughout the trial. All birds were fed a 23% crude protein corn-soy ration from day 1 until day 18 of age. The feed was changed to a 20% crude protein ration for day 18 to day 49. The treatment feed was mixed using the 20% crude protein basal ration. Treatments were administered in the feed from day 21 through day 49. An interim weight was taken on day 35. Feed consumption was calculated over the entire 28-day treatment period. Birds were weighed at trial completion (day 49), and were transported to Purdue University meat laboratory for slaughter and carcass measurements on day, 50. Weights of the hot carcass; fat pad; viscera; bone-in, skin-on breast; and bone-in, skin-on, leg quarter were taken on all animals.

## CC(C)(Cc1ccc(Oc2ncccc2C(N)=O)cc1)NC[C@H](O)COc1cccc2[nH]ccc12 [Compound 6, (S)-2-[4-[2-[2-Hydroxy-3-(1H-indol-4-yloxy)propylamino]-2-methylpropyl]-phenoxy]-3-pyridinecarboxamide]
3 PPM in feed
  Bone-in, Skin-on Breast Weight: 618.03* g
  Bone-in, Skin-on leg Quarter Weight: 665.64** g
  Dressing Percentage: 71.14**
  Fat Pad Weight: 51.67 g
  Final Weight Day 49: 2.78** kg
  Hot Carcass Weight: 1995.58** g
  Interim Weight Day 35: 1.66* kg
  Pen Feed Intake: 41.22 kg
  Total Weight Gain (d 21-49): 2.09** kg
  Viscera Weight: 265.82 g
  Weight Gain Period 1 (d 21-35): 0.96* kg
  Weight Gain Period 2 (d 35-49): 1.12** kg
  Feed Efficiency F/G: 2.04
3 PPM, P=0.1426
  improvement of feed efficiency (feed/gain) compared with control: 6.85%
3 PPM, P=0.0001
  increase in bone-in, skin-on, leg quarters weight: 10.63%
  increase in hot carcass weights over control: 6.50%
3 PPM, P=0.4004
  decrease in viscera weights compared to control: 1.54%
3 PPM, entire 28-day treatment period, P=0.0051
  increase in weight gain over control: 5.03%
3 PPM, first 14 days of the treatment period, P=0.0395
  increase in weight gain over control: 3.22%
3 PPM, last 14 days of treatment, P=0.0064
  increase in weight gain over control: 6.67%
15 PPM in feed
  Bone-in, Skin-on Breast Weight: 600.55 g
  Bone-in, Skin-on leg Quarter Weight: 635.36** g
  Dressing Percentage: 71.16**
  Fat Pad Weight: 49.16 g
  Final Weight Day 49: 2.70 kg
  Hot Carcass Weight: 1928.17* g
  Interim Weight Day 35: 1.63 kg
  Pen Feed Intake: 39.09 kg
  Total Weight Gain (d 21-49): 2.01 kg
  Viscera Weight: 261.08 g
  Weight Gain Period 1 (d 21-35): 0.94 kg
  Weight Gain Period 2 (d 35-49): 1.07 kg
  Feed Efficiency F/G: 2.09
15 PPM, P=0.3594
  improvement of feed efficiency (feed/gain) compared with control: 4.57%
15 PPM, P=0.0003
  increase in bone-in, skin-on, leg quarters weight: 5.60%
15 PPM, P=0.0434
  increase in hot carcass weights over control: 2.90%
15 PPM, P=0.0764
  decrease in viscera weights compared to control: 3.29%
15 PPM, entire 28-day treatment period, P=0.5419
  increase in weight gain over control: 1.01%
15 PPM, first 14 days of the treatment period, P=0.7600
  increase in weight gain over control: 1.08%
15 PPM, last 14 days of treatment, P=0.5028
  increase in weight gain over control: 1.90%
At either dose (3 PPM, 15 PPM)
  effect on fat pad weight (fat accretion): no significant effect
High dose (15 PPM), P=0.5351
  increase in breast muscle weight (bone and skin attached): 1.06%
Low dose (3 PPM), P=0.0227
  increase in breast muscle weight (bone and skin attached): 4.00%
